The values that follow come from US8865744B1, “(Cyano-dimethyl-methyl)-isoxazoles and -[1,3,4]thiadiazoles” (Boehringer Ingelheim International GmbH, priority 2013, dated 2014).

The term EC50 denotes the concentration needed to bring the measured effect to its halfway point.

The target in one experiment is T1, human CB1R (Homo sapiens, UniProt P21554).
T1 construct: host or cells: CHO cells
As to the kind of experiment: CB1 cAMP (Assay 2): In vitro testing of CB1 potency. The class given is cell-based.

The target of another experiment is T2, human CB2R (Homo sapiens, UniProt P34972).
T2 construct: host or cells: CHO cells
T2 sequence (P34972 whole entry): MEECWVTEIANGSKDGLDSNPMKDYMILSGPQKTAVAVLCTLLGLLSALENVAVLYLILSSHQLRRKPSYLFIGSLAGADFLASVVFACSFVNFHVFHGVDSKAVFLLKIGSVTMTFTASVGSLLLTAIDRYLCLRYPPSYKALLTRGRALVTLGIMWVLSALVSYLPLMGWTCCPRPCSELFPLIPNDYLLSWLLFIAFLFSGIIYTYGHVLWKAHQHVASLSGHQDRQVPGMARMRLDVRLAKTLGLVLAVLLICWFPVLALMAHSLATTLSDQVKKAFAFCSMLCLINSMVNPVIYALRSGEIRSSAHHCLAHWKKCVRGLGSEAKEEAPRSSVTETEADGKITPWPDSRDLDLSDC
The experiment in a line: CB2 cAMP (Assay 1): In vitro testing of CB2 potency. Format: cell-based.

Like-named read-outs stand apart in the source and are kept apart here. A value given as a limit tells only on which side of the number the result lay.

T1 sequence (P21554 whole entry): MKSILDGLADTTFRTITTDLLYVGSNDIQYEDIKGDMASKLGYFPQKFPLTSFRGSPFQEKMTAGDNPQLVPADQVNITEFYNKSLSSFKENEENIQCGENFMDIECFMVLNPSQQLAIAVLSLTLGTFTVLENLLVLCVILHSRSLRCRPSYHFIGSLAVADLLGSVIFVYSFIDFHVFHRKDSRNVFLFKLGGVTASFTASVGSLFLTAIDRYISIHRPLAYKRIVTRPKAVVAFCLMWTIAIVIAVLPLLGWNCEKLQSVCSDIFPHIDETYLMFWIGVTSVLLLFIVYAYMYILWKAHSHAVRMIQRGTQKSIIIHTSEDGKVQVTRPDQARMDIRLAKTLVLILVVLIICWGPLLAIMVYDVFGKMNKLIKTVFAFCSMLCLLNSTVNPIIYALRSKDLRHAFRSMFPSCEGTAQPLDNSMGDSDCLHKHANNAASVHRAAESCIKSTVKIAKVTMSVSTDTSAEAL

`COCC(C)(C)c1cc(NC(=O)C(C)(C)S(=O)(=O)CC2CCOCC2)on1` [Example 17 in WO2010036630]: the EC50 was 8600 nM on human CB1R and 30 nM on human CB2R. On to `CC(C)(CO)c1cc(NC(=O)C(C)(C)S(=O)(=O)C2CCOCC2)on1` [Example 2 in WO2010036630], for which the EC50 on human CB1R was found to be 150000 nM.

Consider `CC(C)(C#N)c1cc(NC(=O)C(C)(C)S(=O)(=O)CCCC(F)(F)F)on1` [Example 1, N-[3-(Cyano-dimethyl-methyl)-isoxazol-5-yl]-2-methyl-2-(4,4,4-trifluoro-butane-1-sulfonyl)-propionamide], for which the EC50 at human CB1R stood at 104000 nM; on human CB2R it was 18 nM. For the compound `CN(CC1CCOCC1)C(C)(C)C(=O)Nc1nnc(C(C)(C)CO)s1` [Example 30 in WO2010147792], the EC50 amounted to 120000 nM at human CB1R (read-out: CB1 EC50) and 5.4 nM at human CB2R (read-out: CB2 EC50). Regarding `CC(C)(O)c1cc(NC(=O)C(C)(C)S(=O)(=O)C2CCOCC2)on1` [Example 133 WO2010036630], the EC50 on human CB1R was > 200000 nM; at human CB2R, 140 nM. As for `CC(C)(C#N)c1cc(NC(=O)C(C)(C)S(=O)(=O)C2CCOCC2)on1` [Example 3], the EC50 is > 200000 nM on human CB1R (read-out: CB1 EC50) and 8 nM on human CB2R (read-out: CB2 EC50). As to `CN(CC1CCOCC1)C(C)(C)C(=O)Nc1nnc(C(C)(C)C#N)s1` [Example 7, N-[5-(Cyano-dimethyl-methyl)-[1,3,4]thiadiazol-2-yl]-2-methyl-2-[methyl(tetrahydro-pyran-4-ylmethyl)-amino]-propionamide], the concentration giving a half-maximal response (EC50) on human CB1R is > 200000 nM; on human CB2R it was 25 nM. `CN(C1CCN(S(C)(=O)=O)CC1)C(C)(C)C(=O)Nc1cc(C(C)(C)C#N)no1` [Example 5]: the figures for the EC50 at human CB1R (read-out: CB1 EC50) and on human CB2R (read-out: CB2 EC50) were 2500 nM and 0.23 nM, respectively. `CN(C1CCN(S(C)(=O)=O)CC1)C(C)(C)C(=O)Nc1cc(C(C)(C)CO)no1` [Example 47 in WO2010147792]: the figures for the EC50 on human CB1R (read-out: CB1 EC50) and at human CB2R (read-out: CB2 EC50) were 3100 nM and 0.85 nM, respectively. Regarding `CC(C)(C#N)c1cc(NC(=O)C(C)(C)S(=O)(=O)CC2CCOCC2)on1` [Example 2, N-[3-(Cyano-dimethyl-methyl)-isoxazol-5-yl]-2-methyl-2-(tetrahydro-pyran-4-ylmethanesulfonyl)-propionamide], the EC50 was > 200000 nM at human CB1R and 104 nM on human CB2R. For the compound `CN(CC1CCOCC1)C(C)(C)C(=O)Nc1cc(C(C)(C)C#N)no1` [Example 4], the results for the EC50 on human CB1R (read-out: CB1 EC50) and on human CB2R (read-out: CB2 EC50) were 39400 nM and 0.36 nM, respectively. For `COCC(C)(C)c1cc(NC(=O)C(C)(C)N(C)CC2CCOCC2)on1` [Example 46 in WO2010147792] the same measures were 923 nM and 0.27 nM. Regarding `CN(C1CCN(S(C)(=O)=O)CC1)C(C)(C)C(=O)Nc1nnc(C(C)(C)C#N)s1` [Example 8], the EC50 turned out to be 69000 nM at human CB1R and 4.3 nM on human CB2R. Take `CC(C)(CO)c1cc(NC(=O)C(C)(C)S(=O)(=O)CC2CCOCC2)on1` [Example 1 in WO2010036630]: the EC50 at human CB2R (read-out: CB2 EC50) came out at 88 nM. In the case of `CN(CC1CCOCC1)C(C)(C)C(=O)Nc1cc(C(C)(C)CO)no1` [Example 7 in WO2010147792], the EC50 came out at 8080 nM at human CB1R (read-out: CB1 EC50) and 0.68 nM at human CB2R (read-out: CB2 EC50).
